From patent publication US8148371B2, “Adenine compound and use thereof” (Dainippon Sumitomo Pharma Co., Ltd., priority 2002, dated 2012)
Like-named read-outs stand apart in the source and are kept apart here. Marks after values point to notes of the source that are not given here.

Tests used:
[1] = test system: plasma esterase; details: rat plasma, 37° C., 15 minutes
Procedure: The compound of the present invention is added to the serum solution, and the mixture is incubated at 37±0.5° C. for 5 minutes to 2 hours. By quantitatively analyzing at the definite interval the amount of the compound of the present invention remaining in the serum solution with HPLC (high performance liquid chromatography), etc., the constant of quenching velocity calculated and the half life is calculated.
The serum herein means the supernatant fraction obtained by excluding hemocytes and blood coagulation factor from blood by centrifugation, etc. The serum diluted with buffer, etc. can be used.
The metabolic stability of the test compound was presented by the residual amount (%) per the concentration of pre-metabolization.

[2] = Metabolic stability on liver S9 of rat; details: 37° C.
Procedure: The compound of the present invention is added to liver S9 solution, and the mixture is incubated at 37±0.5° C. for 5 minutes to 2 hours. By quantitatively analyzing at the definite interval the amount of the compound of the present invention remaining in the liver S9 solution with HPLC (high performance liquid chromatography), etc., the constant of quenching velocity is calculated and the half life is calculated.
The reaction on river S9 of a rat was carried out on a 96-well plate by using a robot for screening by Tecan Company. S9 solution was prepared by adding to 10 ml of liver S9 of a rat, 20 ml of 250 mM Kpi (pH 7.4) and 20 ml of deionized water. Cofactor solution was prepared by dissolving NADPH (220 mg) in deionized water (40.5 ml) to give finally a 6 mM solution. IS (Internal Standard) solution was prepared by adding 300 μL of IS solution (1 mM DMSO solution) to 30 ml of acetonitrile solution (100 times dilution). The test compound (1 μM DMSO solution) was dissolved in an incubator at 37° C., 35 μL of it was poured into each well of a 96-well plate (24 samples/plate and then, plates (a sample plate, a 96 well-plate for dilution, deep well plates for reaction and recovering, a plate for extraction of the solid phase) and the test samples (S9 solution, Cofactor solution, IS (Internal Standard) solution, Stop solution, acetonitrile for elution) were set to the specified position in the booth of the robot. The reaction started (the concentration of the test compound was 1 μM) and the mixture was incubated at 37° C. under stirring. The solid phase was extracted and at the same time the internal standard for analysis was added. To the recovered sample (200 μL/well) was added 50 μL of acetonitrile per each well and to 2 plates of FALCON Deep well were poured 100 μL of the solution per well. By subjecting to the LC/MS analysis, the chromatogram of the test sample and the internal standard were described and the peak area was calculated. And then, the stability (residual rate after reaction) was calculated by the internal standard method.

[3] = test system: cells of rat spleen; assay: cells; type: cell-based, SD rat; details: for minimal effective concentration: 24 h, read-out: Minimum effective concentration (interferon inducing activity)
[4] = rat liver S9, test compound 1 μM
[5] = rat liver S9, test compound 10 μM (*)

Compound | Residual rate ([1]; test compound 10 μM) [%] | Residual rate [2, 4] [%] | further results
COC(=O)CNc1nc(N)c2nc(O)n(Cc3ccccc3)c2n1 [Example 31, 9-Benzyl-8-hydroxy-2-methoxycarbonylmethylaminoadenine] | 0 | 3 | 
C=CCOC(=O)CSc1nc(N)c2nc(O)n(Cc3ccccc3)c2n1 [Example 44, 2-(Allyloxycarbonylmethyl)thio-9-benzyl-8-hydroxyadenine] | 0 | 0 | 
CC(C)(C)OC(=O)CSc1nc(N)c2nc(O)n(Cc3ccccc3)c2n1 [Example 43, 9-Benzyl-2-(t-butoxycarbonylmethyl)thio-8-hydroxyadenine] | 0 | 2 | 
COC(=O)CCc1nc(N)c2nc(O)n(Cc3ccccc3)c2n1 [Example 61, 9-Benzyl-8-hydroxy-2-(2-methoxycarbonylethyl)adenine] |  | 0 | minimal effective concentration [3]: 0.003 µM; Residual rate ([1]; test compound 1 μM (*)): 0* %
CCCCOc1nc(N)c2nc(O)n(Cc3cccc(C(=O)OCCOCc4ccccc4)c3)c2n1 [Example 5, 2-Butoxy-8-hydroxy-9-{3-(2-benzyloxyethoxycarbonyl)benzyl}adenine] | 18 |  | 
CCCCOc1nc(N)c2[nH]c(=O)n(Cc3ccc(C(=O)OC)cc3)c2n1 [Example 11, 2-Butoxy-8-hydroxy-9-(4-methoxycarbonylbenzyl)adenine] | 13 |  | 
CCCCOc1nc(N)c2nc(O)n(Cc3ccc(CC(=O)SCC)cc3)c2n1 [Example 75, 2-Butoxy-9-{4-(S-ethylthiocarbonyl)methylbenzyl}-8-hydroxyadenine] |  |  | minimal effective concentration [3]: 0.003 µM; Residual rate ([1]; test compound 1 μM (*)): 0* %
CCOC(=O)CCc1nc(N)c2nc(O)n(Cc3ccccc3)c2n1 [Example 62, 9-Benzyl-2-ethoxycarbonylethyl-8-hydroxy adenine] |  |  | Minimum effective concentration (interferon inducing activity) [3]: 30 nM; Residual rate ([1]; test compound 1 μM (*)): 0* %
CCCCOc1nc(N)c2[nH]c(=O)n(Cc3cccc(CC(=O)OCC)c3)c2n1 [Example 80, 2-Butoxy-9-(3-ethoxycarbonylmethylbenzyl)-8-hydroxyadenine] |  | 0 | minimal effective concentration [3]: 0.001 µM; Residual rate ([1]; test compound 1 μM (*)): 0* %
CCCCOc1nc(N)c2nc(O)n(Cc3cccc(C(=O)OCCN4CCOCC4)c3)c2n1 [Example 8, 2-Butoxy-8-hydroxy-9-{3-(2-morpholinoethoxycarbonyl)benzyl}adenine] | 16 | 1 | 
CCCCOc1nc(N)c2nc(O)n(Cc3ccc(CC(=O)SC)cc3)c2n1 [Example 74, 2-Butoxy-8-hydroxy-9-{4-(S-methylthiocarbonyl)methylbenzyl}adenine] |  | 7 | minimal effective concentration [3]: 0.001 µM; Residual rate ([1]; test compound 1 μM (*)): 0* %
CCCCOc1nc(N)c2nc(O)n(Cc3cccc(C(=O)OC(C)C)c3)c2n1 [Example 3, 2-Butoxy-8-hydroxy-9-(3-isopropoxycarbonylbenzyl)adenine] | 20 | 19 | 
Nc1nc(SCC(=O)OCCF)nc2c1nc(O)n2Cc1ccccc1 [Example 46, 9-Benzyl-2-(2-fluoroethoxycarbonylmetyl)thio-8-hydroxyadenine] | 0 | 0 | 
CCCCNc1nc(N)c2nc(O)n(Cc3ccc(C(=O)OC)cc3)c2n1 [Example 27, 2-Butylamino-8-hydroxy-9-(4-methoxycarbonylbenzyl)adenine] | 0 |  | 
CCCCOc1nc(N)c2nc(O)n(Cc3cccc(C(=O)OCC)c3)c2n1 [Example 2, 2-Butoxy-8-hydroxy-9-(3-ethoxycarbonylbenzyl)adenine] | 5 | 11 | minimal effective concentration [3]: 0.001 µM
CCOC(=O)COc1nc(N)c2nc(O)n(Cc3ccccc3)c2n1 [Example 65, 9-Benzyl-2-ethoxycarbonylmethoxy-8-hydroxyadenine] |  |  | minimal effective concentration [3]: 0.03 µM; Residual rate ([1]; test compound 1 μM (*)): 0* %

Compound | Residual rate ([1]; test compound 10 μM) [%] | Residual rate [2, 4] [%] | further results
CCOC(=O)CCCSc1nc(N)c2nc(O)n(Cc3ccccc3)c2n1 [Example 56, 9-Benzyl-2-(3-ethoxycarbonylpropyl)thio-8-hydroxyadenine] | 0 | 1 | 
CCCCOc1nc(N)c2nc(O)n(Cc3ccc(C(=O)OC(C)C)nc3)c2n1 [Example 18, 2-Butoxy-8-hydroxy-9-{(6-isopropoxycarbonyl-3-pyridyl)methyl}adenine] | 0 |  | 
CCCCOc1nc(N)c2nc(O)n(Cc3ccc(C(=O)OCc4cccnc4)cc3)c2n1 [Example 13, 2-Butoxy-8-hydroxy-9-{4-(3-pyridylmethoxycarbonyl)benzyl}adenine] | 10 |  | 
CCCCOc1nc(N)c2nc(O)n(Cc3cccc(C(=O)OCc4cccnc4)c3)c2n1 [Example 9, 2-Butoxy-8-hydroxy-9-{3-(3-pyridylmethoxycarbonyl)benzyl}adenine] | 1 |  | 
CCCCOc1nc(N)c2nc(O)n(Cc3ccc(OCC(=O)OC)cc3)c2n1 [Example 22, 2-Butoxy-8-hydroxy-9-(4-methoxycarbonylmethoxybenzyl)adenine] | 0 | 31 | 
CCOC(=O)CSc1nc(N)c2nc(O)n(Cc3ccccc3)c2n1 [Example 41, 9-Benzyl-2-(ethoxycarbonylmethyl)thio-8-hydroxyadenine] | 0 |  | Residual rate [2, 5]: 2* %
Nc1nc(SCC(=O)OCc2ccccc2)nc2c1nc(O)n2Cc1ccccc1 [Example 45, 2-(Benzyloxycarbonylmethyl)thio-9-benzyl-8-hydroxyadenine] | 0 |  | Residual rate [2, 5]: 8* %
CCC(=O)OCCOc1nc(N)c2nc(O)n(Cc3ccc(C)nc3)c2n1 [Example 37, 8-Hydroxy-9-(6-methyl-3-pyridyl)methyl-2-{2-(propionyloxy)ethoxy}adenine] | 0 |  | 
Nc1nc(SCC(=O)OCC(F)F)nc2c1nc(O)n2Cc1ccccc1 [Example 47, 9-Benzyl-2-(2,2-difluoroethoxycarbonylmetyl)thio-8-hydroxyadenine] | 0 | 0 | 
CCCCCCCCOC(=O)CSc1nc(N)c2nc(O)n(Cc3ccccc3)c2n1 [Example 42, 9-Benzyl-8-hydroxy-2-(octyloxycarbonylmethyl)thioadenine] | 0 | 3 | 
CCCCOc1nc(N)c2nc(O)n(Cc3cccc(C(=O)OCC(F)(F)F)c3)c2n1 [Example 4, 2-Butoxy-8-hydroxy-9-{3-(2,2,2-trifluorroethoxycarbonyl)benzyl}adenine] | 23 | 25 | 
CCCCOc1nc(N)c2nc(O)n(Cc3ccc(C(=O)OC(C)C)cc3)c2n1 [Example 12, 2-Butoxy-8-hydroxy-9-(4-isopropoxycarbonylbenzyl)adenine] | 29 |  | 
CCCCOc1nc(N)c2nc(O)n(Cc3ccc(C(C)C(=O)OC)cc3)c2n1 (stereo not shown) [Example 100, 2-Butoxy-8-hydroxy-9-[4-(1-methoxycarbonylethyl)benzyl]adenine] |  | 1 | minimal effective concentration [3]: 0.0003 µM
COCCOC(=O)CSc1nc(N)c2nc(O)n(Cc3ccccc3)c2n1 [Example 49, 9-Benzyl-8-hydroxy-2-(2-methoxyethoxycarbonylmethyl)thioadenine] | 0 | 0 | 
CCOC(=O)CCSc1nc(N)c2nc(O)n(Cc3ccccc3)c2n1 [Example 55, 9-Benzyl-2-(2-ethoxycarbonylethyl)thio-8-hydroxyadenine] | 0 |  | Residual rate [2, 5]: 4* %
